# Data as given in ChEMBL document CHEMBL1201862, “PubChem BioAssay data set” (2004).
# Activity calls are given as the source filed them.
# Assays:
# Protein Tat = molecular target: T1, Protein Tat (Human immunodeficiency virus type 1 group M subtype B (isolate HXB2)(HIV-1), UniProt P04608); type: functional;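 note: tat binding to TAR RNA read out by fluorescence polarization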
# T1 sequence (P04608 whole entry): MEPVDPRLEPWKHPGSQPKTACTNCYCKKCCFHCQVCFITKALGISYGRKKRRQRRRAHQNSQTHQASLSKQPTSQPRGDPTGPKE
# [1] = inhibitors of Vif binding to APOBEC3G peptide, primary screen, biochemical, TR-FRET, GST-Vif 1-94, biotin-A3G peptide, dose response retest (AID 1117319); type: functional;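 note: TR-FRET signal of purified GST-Vif binding a biotinylated A3G peptide; inhibitors lower the FRET signal by blocking Vif and A3G binding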
# [2] = Vero cell cytotoxicity, dose response, cytotoxicity control for Vif-APOBEC3G degradation inhibitor project, Vero cells (AID 1117358); type: functional; conditions: Human immunodeficiency virus 1, Vero
# Estrogen receptor beta [3] = molecular target: T2, Estrogen receptor beta (Homo sapiens, UniProt Q92731); assay: ERβ–SRC-3 coactivator interaction inhibitors, confirmation, orthogonal assay, biochemical, ELISA, streptavidin-HRP readout (AID 1060)
# T2 sequence (Q92731 whole entry): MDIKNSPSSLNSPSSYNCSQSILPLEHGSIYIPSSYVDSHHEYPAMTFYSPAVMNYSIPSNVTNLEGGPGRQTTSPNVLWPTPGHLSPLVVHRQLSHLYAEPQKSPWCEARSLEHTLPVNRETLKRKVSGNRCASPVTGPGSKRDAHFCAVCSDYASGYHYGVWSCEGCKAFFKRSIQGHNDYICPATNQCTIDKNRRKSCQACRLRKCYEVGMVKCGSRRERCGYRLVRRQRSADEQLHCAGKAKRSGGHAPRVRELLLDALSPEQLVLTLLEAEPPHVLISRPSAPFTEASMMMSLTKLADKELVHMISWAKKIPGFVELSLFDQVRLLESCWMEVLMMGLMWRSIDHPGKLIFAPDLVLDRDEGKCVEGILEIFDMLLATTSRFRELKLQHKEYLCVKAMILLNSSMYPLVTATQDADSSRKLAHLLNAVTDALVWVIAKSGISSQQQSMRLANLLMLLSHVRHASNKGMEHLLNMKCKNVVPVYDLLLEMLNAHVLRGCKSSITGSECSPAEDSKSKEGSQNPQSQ
# Estrogen receptor beta [4] = molecular target: T2, Estrogen receptor beta
# [5] = molecular target: T3, Replicative DNA helicase DnaB (Mycobacterium tuberculosis, UniProt P9WMR3); assay: DnaB intein splicing inhibitors, dose response, biochemical, cell-free fluorescence (AID 449749); type: functional
# T3 sequence (P9WMR3 whole entry): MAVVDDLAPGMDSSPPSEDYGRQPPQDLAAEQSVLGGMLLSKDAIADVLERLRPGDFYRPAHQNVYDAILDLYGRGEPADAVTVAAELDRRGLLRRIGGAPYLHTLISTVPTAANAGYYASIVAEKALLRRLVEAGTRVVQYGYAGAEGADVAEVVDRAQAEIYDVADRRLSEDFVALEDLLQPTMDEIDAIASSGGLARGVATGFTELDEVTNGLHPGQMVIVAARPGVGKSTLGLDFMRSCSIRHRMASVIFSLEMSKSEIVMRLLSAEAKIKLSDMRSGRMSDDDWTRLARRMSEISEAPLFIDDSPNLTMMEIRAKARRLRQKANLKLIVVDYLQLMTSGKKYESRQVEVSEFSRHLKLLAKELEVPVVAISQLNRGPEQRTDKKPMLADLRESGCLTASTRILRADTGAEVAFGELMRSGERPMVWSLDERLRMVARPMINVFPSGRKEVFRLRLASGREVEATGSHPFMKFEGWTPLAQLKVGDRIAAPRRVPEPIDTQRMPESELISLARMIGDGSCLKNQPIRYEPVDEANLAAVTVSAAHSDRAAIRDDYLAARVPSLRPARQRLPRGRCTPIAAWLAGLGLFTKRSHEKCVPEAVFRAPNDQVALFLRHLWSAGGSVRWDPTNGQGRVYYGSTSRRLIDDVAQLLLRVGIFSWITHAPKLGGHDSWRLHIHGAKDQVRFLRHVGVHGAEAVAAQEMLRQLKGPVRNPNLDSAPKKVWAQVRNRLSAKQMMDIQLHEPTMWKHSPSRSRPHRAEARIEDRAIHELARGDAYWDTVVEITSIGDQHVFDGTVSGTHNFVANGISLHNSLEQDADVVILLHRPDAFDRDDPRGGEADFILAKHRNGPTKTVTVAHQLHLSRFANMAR
# [6] = molecular target: Heat shock protein HSP 90-alpha (Homo sapiens, UniProt P07900); type: functional, organism-based
# [7] = molecular target: T4, Apoptotic protease-activating factor 1 (Homo sapiens, UniProt O14727); type: functional
# T4 sequence (O14727 whole entry): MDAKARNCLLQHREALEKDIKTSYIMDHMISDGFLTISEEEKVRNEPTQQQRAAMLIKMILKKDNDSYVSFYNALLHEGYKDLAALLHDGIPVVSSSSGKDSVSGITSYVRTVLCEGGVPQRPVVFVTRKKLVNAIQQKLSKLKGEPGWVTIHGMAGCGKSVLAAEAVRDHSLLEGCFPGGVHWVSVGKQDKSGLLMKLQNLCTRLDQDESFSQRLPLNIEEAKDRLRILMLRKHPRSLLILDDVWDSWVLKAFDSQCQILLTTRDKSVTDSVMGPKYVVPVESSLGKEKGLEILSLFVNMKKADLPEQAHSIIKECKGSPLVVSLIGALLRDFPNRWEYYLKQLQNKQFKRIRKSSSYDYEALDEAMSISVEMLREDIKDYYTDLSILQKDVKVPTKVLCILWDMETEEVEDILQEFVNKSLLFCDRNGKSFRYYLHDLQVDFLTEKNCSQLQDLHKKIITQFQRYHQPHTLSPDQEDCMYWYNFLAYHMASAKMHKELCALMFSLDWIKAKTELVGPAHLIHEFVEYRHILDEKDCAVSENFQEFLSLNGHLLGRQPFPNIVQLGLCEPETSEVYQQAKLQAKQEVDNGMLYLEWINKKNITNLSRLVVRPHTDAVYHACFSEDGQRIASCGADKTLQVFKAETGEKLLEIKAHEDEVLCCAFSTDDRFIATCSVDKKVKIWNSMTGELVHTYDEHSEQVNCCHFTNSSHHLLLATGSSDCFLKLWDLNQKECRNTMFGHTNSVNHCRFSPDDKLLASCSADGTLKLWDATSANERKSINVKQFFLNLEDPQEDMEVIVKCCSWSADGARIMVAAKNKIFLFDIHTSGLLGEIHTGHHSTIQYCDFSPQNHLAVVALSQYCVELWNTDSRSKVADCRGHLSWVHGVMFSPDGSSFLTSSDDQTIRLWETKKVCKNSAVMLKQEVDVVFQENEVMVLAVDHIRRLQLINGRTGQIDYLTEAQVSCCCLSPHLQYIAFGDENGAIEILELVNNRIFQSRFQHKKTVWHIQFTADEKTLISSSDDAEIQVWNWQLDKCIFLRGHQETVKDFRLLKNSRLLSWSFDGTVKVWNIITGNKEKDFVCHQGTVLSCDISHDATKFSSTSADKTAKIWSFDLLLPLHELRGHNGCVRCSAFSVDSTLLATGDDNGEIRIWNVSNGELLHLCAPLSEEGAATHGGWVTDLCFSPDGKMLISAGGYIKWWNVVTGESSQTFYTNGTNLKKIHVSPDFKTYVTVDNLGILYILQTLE
# Protein RecA = molecular target: T5, Protein RecA (Mycobacterium tuberculosis, UniProt P9WHJ3); assay: Fluorescence Cell-Free Homogeneous Dose Retest to Identify Inhibitors of RecA-Intein Splicing Activity. [Related pubchem assays (depositor defined):AID2097, AID2223, AID489010, AID492950]; type: functional
# T5 sequence (P9WHJ3 whole entry): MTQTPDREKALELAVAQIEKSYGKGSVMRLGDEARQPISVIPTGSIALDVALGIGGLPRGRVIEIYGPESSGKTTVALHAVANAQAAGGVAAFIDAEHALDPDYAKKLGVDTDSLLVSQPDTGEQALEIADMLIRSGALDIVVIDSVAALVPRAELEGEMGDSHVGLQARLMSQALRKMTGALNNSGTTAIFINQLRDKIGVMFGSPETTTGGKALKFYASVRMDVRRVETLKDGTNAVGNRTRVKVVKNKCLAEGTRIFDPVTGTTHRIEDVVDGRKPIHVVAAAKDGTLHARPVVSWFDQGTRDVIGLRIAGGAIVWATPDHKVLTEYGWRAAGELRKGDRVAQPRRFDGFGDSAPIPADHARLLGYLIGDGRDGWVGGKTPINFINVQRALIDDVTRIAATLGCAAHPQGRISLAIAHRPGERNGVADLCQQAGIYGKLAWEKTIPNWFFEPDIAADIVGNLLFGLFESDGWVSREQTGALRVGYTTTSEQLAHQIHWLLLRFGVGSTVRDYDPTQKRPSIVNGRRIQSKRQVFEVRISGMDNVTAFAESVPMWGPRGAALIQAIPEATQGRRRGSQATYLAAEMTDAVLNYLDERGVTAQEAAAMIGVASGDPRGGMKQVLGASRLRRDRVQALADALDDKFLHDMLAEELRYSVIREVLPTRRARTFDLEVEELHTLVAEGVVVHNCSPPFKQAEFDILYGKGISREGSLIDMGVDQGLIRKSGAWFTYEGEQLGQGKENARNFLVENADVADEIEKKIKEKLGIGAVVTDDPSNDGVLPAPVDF
# [8] = Artemis endonuclease inhibitor potency, dose response, biochemical, fluorescence intensity (AID 720701); type: functional;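 note: Artemis endonuclease enzyme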
# [9] = molecular target: T6, Low molecular weight phosphotyrosine protein phosphatase (Homo sapiens, UniProt P24666); assay: LMPTP phosphatase inhibitors, colorimetric pNPP readout, dose response, orthogonal assay, biochemical, absorbance, pNPP substrate, LMPTP-A isoform, set 2 (AID 743308); type: functional
# T6 sequence (P24666 whole entry): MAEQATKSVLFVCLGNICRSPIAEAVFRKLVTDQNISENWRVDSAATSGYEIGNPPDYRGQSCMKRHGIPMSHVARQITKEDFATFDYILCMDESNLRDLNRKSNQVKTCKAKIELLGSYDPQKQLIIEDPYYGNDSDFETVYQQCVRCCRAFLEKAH
# [10] = molecular target: T6, Low molecular weight phosphotyrosine protein phosphatase; assay: LMPTP phosphatase inhibitors, dose response, biochemical, OMFP substrate, fluorescence intensity, set 2 (AID 743307); type: functional
# Phospholipase D1 = molecular target: T7, Phospholipase D1 (Homo sapiens, UniProt Q13393); assay: PLD1 Cellular Concentration Response Study.; type: functional
# T7 sequence (Q13393 whole entry): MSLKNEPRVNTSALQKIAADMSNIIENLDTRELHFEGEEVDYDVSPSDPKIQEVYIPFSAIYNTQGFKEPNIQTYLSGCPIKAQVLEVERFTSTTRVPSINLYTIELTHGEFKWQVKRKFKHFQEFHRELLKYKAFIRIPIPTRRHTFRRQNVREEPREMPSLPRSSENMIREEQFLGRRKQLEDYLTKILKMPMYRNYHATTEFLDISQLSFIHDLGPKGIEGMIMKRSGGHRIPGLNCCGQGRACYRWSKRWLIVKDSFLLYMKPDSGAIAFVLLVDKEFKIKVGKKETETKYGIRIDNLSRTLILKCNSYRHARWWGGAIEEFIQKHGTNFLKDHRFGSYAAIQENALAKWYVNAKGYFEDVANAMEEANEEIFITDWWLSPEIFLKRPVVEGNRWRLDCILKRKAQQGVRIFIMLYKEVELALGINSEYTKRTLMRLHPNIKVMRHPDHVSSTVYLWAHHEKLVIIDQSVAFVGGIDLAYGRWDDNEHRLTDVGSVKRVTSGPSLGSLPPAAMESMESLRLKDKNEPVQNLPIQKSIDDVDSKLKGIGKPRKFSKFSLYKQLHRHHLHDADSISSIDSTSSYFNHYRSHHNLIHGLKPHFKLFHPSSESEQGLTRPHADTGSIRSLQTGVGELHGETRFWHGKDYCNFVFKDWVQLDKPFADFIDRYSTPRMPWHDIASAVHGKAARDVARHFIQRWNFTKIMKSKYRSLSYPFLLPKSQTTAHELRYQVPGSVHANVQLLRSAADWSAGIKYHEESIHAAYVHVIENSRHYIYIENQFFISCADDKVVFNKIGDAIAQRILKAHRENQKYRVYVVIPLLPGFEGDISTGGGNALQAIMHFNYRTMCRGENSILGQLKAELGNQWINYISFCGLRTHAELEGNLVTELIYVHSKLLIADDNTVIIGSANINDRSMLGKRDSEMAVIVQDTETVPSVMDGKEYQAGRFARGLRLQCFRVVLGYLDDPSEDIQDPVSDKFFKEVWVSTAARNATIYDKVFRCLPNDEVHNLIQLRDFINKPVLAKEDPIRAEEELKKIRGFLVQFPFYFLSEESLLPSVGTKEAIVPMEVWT
# Phospholipase D2 = Phospholipase D2 (Homo sapiens, UniProt O14939); assay: PLD2 Cellular Concentration Response Study.; type: functional
# Phospholipase D2, sequence (O14939 whole entry): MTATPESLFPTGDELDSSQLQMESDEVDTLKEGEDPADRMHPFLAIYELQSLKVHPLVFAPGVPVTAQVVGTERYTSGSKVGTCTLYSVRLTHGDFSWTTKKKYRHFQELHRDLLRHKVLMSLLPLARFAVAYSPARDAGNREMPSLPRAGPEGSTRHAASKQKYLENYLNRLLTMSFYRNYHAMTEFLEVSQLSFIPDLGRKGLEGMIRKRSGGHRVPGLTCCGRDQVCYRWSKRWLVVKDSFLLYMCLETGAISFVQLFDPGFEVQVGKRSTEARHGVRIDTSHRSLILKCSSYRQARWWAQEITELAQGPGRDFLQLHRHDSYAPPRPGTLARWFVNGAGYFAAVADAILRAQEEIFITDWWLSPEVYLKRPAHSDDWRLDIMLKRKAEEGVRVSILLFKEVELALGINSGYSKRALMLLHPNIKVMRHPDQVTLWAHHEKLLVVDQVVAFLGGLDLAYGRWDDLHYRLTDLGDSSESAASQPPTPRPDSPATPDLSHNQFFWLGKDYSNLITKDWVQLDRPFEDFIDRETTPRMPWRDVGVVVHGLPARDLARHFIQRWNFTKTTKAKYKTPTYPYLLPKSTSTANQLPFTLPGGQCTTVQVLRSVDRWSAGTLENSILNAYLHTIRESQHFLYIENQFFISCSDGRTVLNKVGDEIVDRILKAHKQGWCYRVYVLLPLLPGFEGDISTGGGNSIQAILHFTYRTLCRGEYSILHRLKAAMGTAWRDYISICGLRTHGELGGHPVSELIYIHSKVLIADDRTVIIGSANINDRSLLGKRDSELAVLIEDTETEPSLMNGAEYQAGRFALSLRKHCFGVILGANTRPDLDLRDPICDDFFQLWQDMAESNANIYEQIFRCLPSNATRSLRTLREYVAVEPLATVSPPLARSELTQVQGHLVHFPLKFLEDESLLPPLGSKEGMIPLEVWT
# [11] = molecular target: RNA-editing ligase 1, mitochondrial (Trypanosoma brucei brucei, UniProt P86926); assay: TbREL1 ligase inhibitors, dose response, biochemical, fluorescence, Trypanosoma brucei (AID 1117295); type: functional
# RNA-editing ligase 1, mitochondrial, sequence (P86926 whole entry): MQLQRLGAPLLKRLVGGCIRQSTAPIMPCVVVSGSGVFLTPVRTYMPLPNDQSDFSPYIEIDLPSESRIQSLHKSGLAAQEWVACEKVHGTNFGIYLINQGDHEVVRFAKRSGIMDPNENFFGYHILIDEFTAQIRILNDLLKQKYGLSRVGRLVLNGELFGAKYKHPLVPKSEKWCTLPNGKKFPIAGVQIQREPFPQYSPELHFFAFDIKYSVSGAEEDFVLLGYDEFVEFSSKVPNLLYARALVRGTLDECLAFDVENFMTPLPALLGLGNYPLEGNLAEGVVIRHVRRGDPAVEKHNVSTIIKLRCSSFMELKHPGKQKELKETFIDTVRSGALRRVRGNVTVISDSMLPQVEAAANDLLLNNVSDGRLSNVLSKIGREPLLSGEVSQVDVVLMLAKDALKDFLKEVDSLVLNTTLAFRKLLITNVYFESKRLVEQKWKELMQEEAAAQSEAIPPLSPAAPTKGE
# [12] = molecular target: G-protein coupled receptor 183 (Homo sapiens, UniProt P32249); assay: SAR confirmation of small molecule antagonists of the EBI2 receptor via a luminescent beta-arrestin assa.; type: functional
# G-protein coupled receptor 183, sequence (P32249 whole entry): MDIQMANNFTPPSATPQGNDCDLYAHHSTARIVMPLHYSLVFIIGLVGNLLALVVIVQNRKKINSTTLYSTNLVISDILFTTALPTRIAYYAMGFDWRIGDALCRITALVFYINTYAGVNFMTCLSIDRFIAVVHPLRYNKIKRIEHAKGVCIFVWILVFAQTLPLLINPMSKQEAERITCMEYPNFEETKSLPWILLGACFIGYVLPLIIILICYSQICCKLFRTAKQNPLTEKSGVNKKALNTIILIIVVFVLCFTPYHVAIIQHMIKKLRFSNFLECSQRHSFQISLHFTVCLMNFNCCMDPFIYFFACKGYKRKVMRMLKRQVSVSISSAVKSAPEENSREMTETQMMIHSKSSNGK
compound,measurement,setting,value
CCc1nc(OCc2ccco2)c2sc3nc4c(cc3c2n1)COC(C)(C)C4,IC50,Protein Tat,> 100 µM (active)
same,IC50,[1],> 100 µM (active)
same,CC50,[2],> 40 µM (active)
Cc1noc(C)c1CSCC(=O)OCC(=O)Nc1sccc1C#N,IC50,Estrogen receptor beta [3],< 77 µM (not active)
same,IC50,Estrogen receptor beta [4],15.8 µM (active)
C=C(Cl)COc1ccc2c(CCC)cc(=O)oc2c1,CC50,[2],> 40 µM (active)
O=C(O)c1ccccc1NS(=O)(=O)c1ccccc1C(F)(F)F,IC50,[1],> 100 µM (active)
Cc1[nH]n(-c2ccccc2)c(=O)c1C(C[N+](=O)[O-])c1ccc(Br)cc1 (stereo not drawn),AC50,[5],7.55 µM (active)
same,AC50,[6],7.85 µM (active)
same,IC50,[7],4.17 µM (active)
same,EC50,Protein RecA,5.73 µM (active)
same,IC50,[8],> 20 µM (inactive)
c1ccc(-c2cc(NCCCN3CCOCC3)c3ccccc3n2)cc1,IC50,[9],12.6 µM (active)
same,IC50,[10],7.68 µM (active)
O=C(NCCN1CCC2(CC1)C(=O)NCN2Cc1cccc2ccccc12)c1ccc2ccccc2c1,IC50,Phospholipase D1,1.05 µM (active)
same,IC50,Phospholipase D2,160 nM (active)
COC(=O)C1=C(C)N(Cc2ccccc2C(F)(F)F)C(NCc2ccc(C(F)(F)F)cc2)=NC1c1ccc(Cl)cc1 (stereo not drawn),IC50,[11],> 96.6 µM (inactive)
c1ccc(-c2nc(N3CCCCCC3)c3ccccc3n2)cc1,IC50,[9],> 80 µM (inactive)
same,IC50,[10],72.2 µM (inactive)
O=C(/C=C/c1ccc(Br)cc1)N1CCN(Cc2ccc(Cl)cc2)CC1,IC50,[12],1.03 nM (active)
O=C(Cc1ccc(Br)cc1)N1CCN(Cc2ccc(Cl)cc2)CC1,IC50,[12],> 1000 nM (inactive)
O=C(NCCN1CCC2(CC1)C(=O)NCN2Cc1cccnc1)c1ccc2ccccc2c1Br,IC50,Phospholipase D1,20 µM (active)
same,IC50,Phospholipase D2,1240 nM (active)
